Reference: PubChem BioAssay AID608 (Sanford-Burnham Center for Chemical Genomics, 2007)
Calls of active or inactive are those of the source. The rule behind the calls is not given here.

What follows are molecules tested against Peptidyl-prolyl cis-trans isomerase FKBP1A (Homo sapiens) (UniProt P62942) (assay: small-molecule binding to FKBP12 – biophysical, NMR detection (AID 608)). Settings: purified FKBP12.
Sequence of Peptidyl-prolyl cis-trans isomerase FKBP1A (Homo sapiens) (P62942 whole entry, looked up): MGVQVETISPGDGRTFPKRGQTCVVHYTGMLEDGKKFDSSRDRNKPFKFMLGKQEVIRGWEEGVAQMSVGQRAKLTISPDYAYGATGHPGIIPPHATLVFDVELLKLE

Compound | Kd
C[C@@H]1O[C@@H](O[C@H]2C[C@@H](O)[C@]3(CO)C4C(CC[C@]3(O)C2)[C@@]2(O)CC[C@H](C3=CC(=O)OC3)[C@@]2(C)C[C@H]4O)[C@H](O)[C@H](O)[C@H]1O (some centres undefined) | > 4 mM (inactive)
OC1CCCN(Cc2ccccc2)C1 (centres undefined) | > 4 mM (inactive)
Cc1ccnc(NS(=O)(=O)c2ccccc2)n1 | > 4 mM (inactive)
c1ccc(-c2csc(Nc3cccnc3)n2)nc1 | > 4 mM (inactive)
CC(C)(C)c1ccc(SCC(N)=O)cc1 | 0.455 mM
COc1cc(OC)c2ccc(=O)oc2c1 | > 4 mM (inactive)
COc1ccc(S(N)(=O)=O)cc1 | > 4 mM (inactive)
NCc1ccc(S(=O)(=O)O)cc1 | > 4 mM (inactive)
Cn1cc(Cl)c(C(=O)NC2CCCCCC2)n1 | > 4 mM (inactive)
COc1cc2c(cc1OC)C1=C(C#N)CCC(=O)N1CC2 | > 4 mM (inactive)
NC1=NC(=O)C(Cc2ccccc2)S1 (centres undefined) | > 4 mM (inactive)
O=C(Nn1c(=S)[nH]c2ccccc2c1=O)c1ccncc1 | > 4 mM (inactive)
NC(=O)C1CCN(C(=O)c2ccccc2)CC1 | > 4 mM (inactive)
COCc1nc(-c2cc(Br)ccc2OC)no1 | > 4 mM (inactive)
Cc1ccc(C(=O)NCCO)c(Cl)c1 | > 4 mM (inactive)
Cc1ccc2nc(SCC(=O)O)nc(C)c2c1 | > 4 mM (inactive)
CCOC(=O)C1=C(O)CCN(C)C1 | > 4 mM (inactive)
COc1cccc2c1CCC1=CC(=O)CC[C@@]12C | > 4 mM (inactive)
C=CCCCCCCCCCCCC(O)CC(O)COC(C)=O (centres undefined) | > 4 mM (inactive)
CC(N)C(=O)c1ccco1 (centres undefined) | > 4 mM (inactive)
Cc1ccc(C)c(S(=O)(=O)NCc2cccnc2)c1 | > 4 mM (inactive)
C[C@@H]1CC[C@@]2(OC1)O[C@H]1CC3C4CC[C@H]5C[C@@H](O)CC[C@]5(C)C4CC[C@]3(C)[C@H]1[C@@H]2C (some centres undefined) | > 4 mM (inactive)
CCN(CC)C(=O)c1n[nH]c(=O)c2ccccc12 | > 4 mM (inactive)

Compound | Kd
c1nnc2c3c4c(sc3ncn12)CCCC4 | > 4 mM (inactive)
OC[C@@H](O)[C@@H](O[C@@H]1O[C@H](CO)[C@@H](O)[C@H](O)[C@H]1O)[C@H](O)[C@@H](O)CO | > 4 mM (inactive)
O=C(NCc1ccccc1Cl)c1cnn2cccnc12 | > 4 mM (inactive)
Cc1[nH]c2ccccc2c1C=Nn1cncn1 | > 4 mM (inactive)
Nc1cc(C(F)(F)F)ccc1N1CCOCC1 | > 4 mM (inactive)
CC1=NCCc2c1[nH]c1cc(O)ccc21 | > 4 mM (inactive)
CS(=O)(=O)c1ccc2nc(N)sc2c1 | > 4 mM (inactive)
CCC(CO)NC(=O)c1snnc1C (centres undefined) | > 4 mM (inactive)
C[C@@H]1CC[C@]2(C(=O)O)CC[C@]3(C)C(=CCC4[C@@]5(C)CC[C@H](O)C(C)(C)C5CC[C@]43C)C2[C@H]1C (some centres undefined) | > 4 mM (inactive)
O=C(c1cc2ccccc2o1)N1CCCCCC1 | 0.184 mM
O=C(Nn1cnnc1)c1csc2c1CCCC2 | > 4 mM (inactive)
O=c1c(O)c(-c2ccc(O)c(O)c2)oc2cc(O)ccc12 | > 4 mM (inactive)
CC(=O)OC[C@@]1(O)C[C@@]23CCC4c5ccoc5CC[C@]4(C)C2CC[C@@H]1C3 (some centres undefined) | > 4 mM (inactive)
COc1ccc(N=C2NC(=O)CS2)cc1 | > 4 mM (inactive)
Cc1c(CO)cnn1-c1ccc(F)cc1 | > 4 mM (inactive)
Cn1c(=O)[nH]c(=O)c2nsnc21 | > 4 mM (inactive)
Cn1nc(C(=O)Nc2cccnc2)c2ccccc2c1=O | > 4 mM (inactive)
CC12CCC(O)CC1CCC1C2[C@H](O)CC2(C)C(C3=CC(=O)OC3)CCC12O (some centres undefined) | > 4 mM (inactive)
CSc1nnc2c(n1)OC=Nc1ccccc1-2 | > 4 mM (inactive)
CC(=O)NCS(=O)(=O)c1ccc(C)cc1 | > 4 mM (inactive)
Cc1nc(NC(=O)c2cccnc2)ccc1Br | > 4 mM (inactive)
CCC(C)OC1CCS(=O)(=O)C1 (centres undefined) | > 4 mM (inactive)
COc1cc(-c2nnc(NC(C)=O)o2)cc(OC)c1OC | > 4 mM (inactive)

Compound | Kd
Cc1c(C(=O)Nc2ccccc2)sc(N)c1C(N)=O | > 4 mM (inactive)
O=C(O)CNC(=O)c1ccc([N+](=O)[O-])cc1 | > 4 mM (inactive)
CN(C(=O)NC1CCS(=O)(=O)C1)C1CCCCC1 (centres undefined) | > 4 mM (inactive)
COc1ccc(Cl)cc1NS(=O)(=O)N1CCCCC1 | inactive
CC(C)=NNC(=O)C(=O)NC(C)(C)C | > 4 mM (inactive)
c1ccc2sc(CCc3nc4ccccc4s3)nc2c1 | inactive
CC1SC(=NC(=O)c2ccncc2)NC1=O (centres undefined) | > 4 mM (inactive)
Cc1cc2c(nn1)CCc1nonc1-2 | > 4 mM (inactive)
Cn1cnnc1SCC(=O)Nc1nccs1 | > 4 mM (inactive)
COc1cccc(NC(=O)c2ocnc2C)c1 | > 4 mM (inactive)
O=C(O)c1cc(O)c(O)c(O)c1 | > 4 mM (inactive)
CC(=O)O[C@@H]1CC2C(C)(C)[C@H](O)C=C[C@]2(C)C2CC[C@@]3(C)[C@H](c4ccoc4)OC(=O)C4OC43[C@@]21C (some centres undefined) | > 4 mM (inactive)
Nc1ccc(N2CCOCC2)cc1 | > 4 mM (inactive)
CC(=O)O[C@H]1CCC2(C)C3=C(CCC2C1(C)C)[C@]1(C)CCC(C(C)CCC=C(C)C)[C@@]1(C)CC3 (some centres undefined) | > 4 mM (inactive)
Cc1cc(C(=O)Nc2nnc(C(F)(F)F)s2)no1 | > 4 mM (inactive)
CC(=O)c1cccc(NC(=O)C=C(C)C)c1 | > 4 mM (inactive)
COc1ccc(NC(=O)CSc2nccc(=O)[nH]2)cc1 | > 4 mM (inactive)
C=C(C)C1(O)OC(=O)C=C1OC (centres undefined) | > 4 mM (inactive)
CC1Oc2ccccc2OC1C(=O)N1CCOCC1 (centres undefined) | > 4 mM (inactive)
O=c1[nH]c(=O)n(-c2ccc(F)cc2)c(O)c1/C=C1/C=CC=N1 | > 4 mM (inactive)
C=C1C2CC[C@@]3(C)[C@H](c4ccoc4)OC(=O)C[C@]13O[C@H]1C[C@H](OC(C)=O)C(C)(C)[C@H](CC(=O)OC)[C@@]21C | > 4 mM (inactive)
O=C(NC1CC1)c1ccccc1[N+](=O)[O-] | > 4 mM (inactive)
Nc1ccccc1C(=O)N1CCOCC1 | > 4 mM (inactive)

Compound | Kd
N#Cc1cnn2c(C(F)(F)F)cc(C(F)(F)F)nc12 | > 4 mM (inactive)
O=S(=O)(c1cccc2cccnc12)N1CCOCC1 | > 4 mM (inactive)
CSc1ccc2nnc(-c3cccnc3)n2n1 | > 4 mM (inactive)
O=C(Nc1nncs1)c1c(F)cccc1F | > 4 mM (inactive)
COc1ccc(C)cc1S(N)(=O)=O | > 4 mM (inactive)
CN=C1SC(CC(=O)Nc2ccc(O)cc2)C(=O)N1C (centres undefined) | > 4 mM (inactive)
Nc1ccc(-n2cccc2)cc1 | > 4 mM (inactive)
O=C1CCC(c2cccs2)=NN1 | > 4 mM (inactive)
COc1cc(N)ccc1NC(=O)c1cccs1 | > 4 mM (inactive)
NCc1ccc2sccc2c1 | > 4 mM (inactive)
O=C(CN1C(=O)c2cccc3cccc(c23)C1=O)NO | > 4 mM (inactive)
COC(=O)/C(=C1\OC(=O)C(c2ccccc2)C1=O)c1ccccc1 (centres undefined) | > 4 mM (inactive)
Cc1onc(-c2ccccc2)c1C(=O)Nc1ccncc1 | > 4 mM (inactive)
O=C(O)CSCC(=O)Nc1cccc(O)c1 | > 4 mM (inactive)
CC(=O)Nc1sccc1C(=O)NC(N)=O | > 4 mM (inactive)
CSc1nc(NC(C)C)nc(N2CCOCC2)n1 | > 4 mM (inactive)
O=C1C=CC(=O)c2c(O)cccc21 | > 4 mM (inactive)
Cc1nc(NC2=NCCC(=O)N2)nc2ccccc12 | > 4 mM (inactive)
Nc1ccc(S(=O)(=O)N2CCCCC2)cc1 | > 4 mM (inactive)
CC(=O)Oc1ccc(O)cc1 | > 4 mM (inactive)
Cc1nc2ccccc2c(=O)n1N1C(=O)CCCC1=O | > 4 mM (inactive)
C/C=C(/C)C(=O)O[C@@H]1Cc2c(ccc3ccc(=O)oc23)OC1(C)C | > 4 mM (inactive)
CC1(C)C(=O)[C@@H]2O[C@@H]2[C@@]2(C)C1C[C@@H](O)[C@]1(C)C2CC[C@@]2(C)[C@H](c3ccoc3)OC(=O)C3OC321 (some centres undefined) | > 4 mM (inactive)

Compound | Kd
CCOC(=O)c1c(C)nc2c(C#N)cnn2c1C | > 4 mM (inactive)
Cc1nc(-c2cc(CO)no2)cs1 | > 4 mM (inactive)
Cc1cccc(CSc2nncc(=O)[nH]2)c1 | > 4 mM (inactive)
O=C(Nc1cccnc1)Nc1ccc2c(c1)OCO2 | > 4 mM (inactive)
O=S(=O)(NCc1ccco1)c1cccc2cccnc12 | > 4 mM (inactive)
Cc1c(C(=O)NCc2ccccn2)oc2ccccc12 | > 4 mM (inactive)
Cc1cc(C(=O)NCc2ccccc2Br)no1 | > 4 mM (inactive)
COc1c2c(cc3c1OCO3)CCN(C)C2 | > 4 mM (inactive)
CC(C)/C(O)=C1/C(=O)O[C@@H](c2ccoc2)[C@]2(C)C(O)[C@@H](O)[C@@]34OC5(C)OC67CC(C)(C(O)[C@]6(O)[C@@H](O)[C@]3(O5)C12)[C@H](CC(=O)O)[C@]74C (some centres undefined) | > 4 mM (inactive)
COc1c(C(=O)N2CCCC2)ccc2ccccc12 | > 4 mM (inactive)
CC1(C)C(=O)CC[C@@]2(C)C1C[C@@H](O)[C@@]1(C)C3=CC(=O)O[C@@H](c4ccoc4)[C@]3(C)CCC21 (some centres undefined) | > 4 mM (inactive)
CCC(=O)OC1[C@@H]2CC3=C4CC(=O)O[C@@H](c5ccoc5)[C@]4(C)CCC3C(C)(C2=O)[C@@H](CC(=O)OC)C1(C)C (some centres undefined) | > 4 mM (inactive)
Cc1cc(NC(=O)Cc2c(F)cccc2Cl)no1 | > 4 mM (inactive)
O=C(O)CCc1ccc2c(c1)OCO2 | > 4 mM (inactive)
O=C(O)c1scc2c1CCCC2 | > 4 mM (inactive)
O=C(O)c1c[nH]c2ccccc12 | > 4 mM (inactive)
OCc1cccc2c1OCCO2 | > 4 mM (inactive)
O=C(CN1CCOCC1)Nc1nccs1 | > 4 mM (inactive)
CN(C)N1C(=O)C2CCCCC2C1=O (centres undefined) | > 4 mM (inactive)
COc1cc(CNC(=O)CCCC/C=C/C(C)C)ccc1O | > 4 mM (inactive)
Cc1cc(O)c(NC(=O)c2ccco2)cc1C | > 4 mM (inactive)
OCc1ccccc1O[C@@H]1O[C@H](CO)[C@@H](O)[C@H](O)[C@H]1O | > 4 mM (inactive)
